# Data published in US20230365559A1, “NOVEL AMINOPYRIDINES AND THEIR USE IN TREATING CANCER” (priority 2020, published 2023).
# Where “and” joins values, the source holds several entries; their conditions need not be identical. Equal values may be shown once. Entries after “also recorded” stand apart in the source; their conditions may differ.
# Assays:
# HAP1 cells = experiment: Radiosensitisation of HAP1 wild type cells, regrowth assay; format: cell-based, human; conditions: for IC50: Homo sapiens, HAP1, read-out: HAP1 wt IC50; for effect in unirradiated HAP1 cells: 0 Gy; for radiosensitisation / differential growth inhibition of HAP1 cells: 3 Gy cobalt-60 gamma irradiation relative to radiation-only
# human PI3Kα (p110α/p85α) = human PI3Kα (p110α/p85α) (Homo sapiens, UniProt P42336); experiment: Inhibition of PI3Kα kinase activity, ADP-Glo Assay (Reaction Biology); format: biochemical; conditions: 10 μM ATP; mean of two replicates; Table 12; read-out: Inhibition of kinase activity (as IC50) PICK
# human PI3Kα (p110α/p85α), sequence (P42336 whole entry): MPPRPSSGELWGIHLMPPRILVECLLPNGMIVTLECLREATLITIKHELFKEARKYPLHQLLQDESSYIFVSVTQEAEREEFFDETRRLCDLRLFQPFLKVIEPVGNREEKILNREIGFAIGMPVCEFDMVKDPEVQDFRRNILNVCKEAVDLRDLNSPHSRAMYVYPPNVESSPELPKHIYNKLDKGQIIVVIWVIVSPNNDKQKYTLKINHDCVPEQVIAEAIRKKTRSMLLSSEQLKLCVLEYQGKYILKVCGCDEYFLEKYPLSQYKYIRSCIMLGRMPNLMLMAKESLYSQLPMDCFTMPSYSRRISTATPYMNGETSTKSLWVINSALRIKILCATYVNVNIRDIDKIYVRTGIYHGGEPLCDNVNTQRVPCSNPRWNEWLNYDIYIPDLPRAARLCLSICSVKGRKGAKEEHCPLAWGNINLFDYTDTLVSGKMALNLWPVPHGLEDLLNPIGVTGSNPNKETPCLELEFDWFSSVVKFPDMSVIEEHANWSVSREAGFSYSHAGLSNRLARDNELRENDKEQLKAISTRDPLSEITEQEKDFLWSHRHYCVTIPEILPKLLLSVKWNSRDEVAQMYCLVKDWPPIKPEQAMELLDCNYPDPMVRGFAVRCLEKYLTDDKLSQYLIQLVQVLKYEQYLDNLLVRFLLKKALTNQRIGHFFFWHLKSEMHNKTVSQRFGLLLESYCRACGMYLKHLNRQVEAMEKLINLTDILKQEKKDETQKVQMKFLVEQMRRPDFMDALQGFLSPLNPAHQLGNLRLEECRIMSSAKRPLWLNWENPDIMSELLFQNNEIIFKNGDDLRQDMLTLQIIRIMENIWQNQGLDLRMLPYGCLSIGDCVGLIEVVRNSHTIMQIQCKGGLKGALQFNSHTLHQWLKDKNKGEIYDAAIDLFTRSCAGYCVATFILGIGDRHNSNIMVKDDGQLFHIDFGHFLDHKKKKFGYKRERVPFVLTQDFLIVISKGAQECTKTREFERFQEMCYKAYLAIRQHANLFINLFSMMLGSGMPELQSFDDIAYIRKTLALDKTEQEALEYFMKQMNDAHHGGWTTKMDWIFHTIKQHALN
# human PI3Kα (p110α/p85α), sequence (P27986 whole entry partner): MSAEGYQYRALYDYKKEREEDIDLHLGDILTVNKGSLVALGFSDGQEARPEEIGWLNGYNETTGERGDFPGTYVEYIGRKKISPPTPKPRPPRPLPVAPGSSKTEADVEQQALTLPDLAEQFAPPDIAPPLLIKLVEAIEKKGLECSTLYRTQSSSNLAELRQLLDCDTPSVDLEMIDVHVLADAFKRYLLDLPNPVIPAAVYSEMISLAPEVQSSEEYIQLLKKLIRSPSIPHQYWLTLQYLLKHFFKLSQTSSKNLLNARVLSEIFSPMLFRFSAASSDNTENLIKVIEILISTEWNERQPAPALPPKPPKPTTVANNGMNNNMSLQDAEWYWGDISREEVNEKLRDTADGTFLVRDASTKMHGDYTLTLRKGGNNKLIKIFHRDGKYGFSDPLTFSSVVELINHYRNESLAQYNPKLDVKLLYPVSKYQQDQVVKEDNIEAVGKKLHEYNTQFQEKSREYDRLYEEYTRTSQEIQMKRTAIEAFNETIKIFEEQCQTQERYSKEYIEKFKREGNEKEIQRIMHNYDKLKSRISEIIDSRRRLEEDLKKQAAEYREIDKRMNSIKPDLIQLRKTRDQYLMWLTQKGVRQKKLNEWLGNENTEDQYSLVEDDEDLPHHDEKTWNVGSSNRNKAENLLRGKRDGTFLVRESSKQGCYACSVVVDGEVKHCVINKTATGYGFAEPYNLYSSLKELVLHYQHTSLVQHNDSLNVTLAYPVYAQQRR
# UT-SCC-54C cells [1] = experiment: Radiosensitisation of UT-SCC-54C HNSCC cells, regrowth (sulforhodamine B) assay, oxic (Table 16); format: cell-based, human; conditions: for IC50: Homo sapiens, read-out: IC50; for S50: compound in combination with 3 Gy of radiation, 50% inhibition of regrowth fraction, UT-SCC-54C, oxic
# human DNA-PK = human DNA-PK (Homo sapiens, UniProt P78527); experiment: Inhibition of DNA-PKcs kinase activity, HotSpot assay (Reaction Biology), [γ-33P]-ATP phosphorylation of peptide substrate; format: biochemical; conditions: 10 μM ATP, 10 μg/ml DNA; mean of two replicates; Table 12; read-out: Inhibition of kinase activity (as IC50) DNA-PK (converted)
# HAP1/PRKDC−/− cells = experiment: Radiosensitisation of DNA-PK null HAP1/PRKDC−/− cells, regrowth assay; format: cell-based, human; conditions: for IC50: Homo sapiens, HAP1; for radiosensitisation / differential growth inhibition of DNA-PK null HAP1 line: 3 Gy, HAP1/PRKDC−/−
# human mTOR = human mTOR (Homo sapiens, UniProt P42345); experiment: Inhibition of mTOR kinase activity, HotSpot assay, phosphorylation of 4EPB1; conditions: Inhibition of kinase activity (as IC50) mTOR (nM), 10 μM ATP; mean of two replicates; Table 12
# UT-SCC-54C cells [2] = experiment: Radiosensitisation of UT-SCC-54C HNSCC cells, clonogenic survival, oxic and anoxic (Table 18); format: cell-based, human; conditions: for Plating efficiency drug/no drug: no radiation
smiles,measurement,setting,value
"Cc1cc(Cl)ccc1Nc1cc2c(cn1)n(C)c(=O)n2C1CCOC1 (stereo not drawn) [Compound 116, 6-((4-Chloro-2-methylphenyl)amino)-3-methyl-1-(tetrahydrofuran-3-yl)-1,3-dihydro-2H-imidazo[4,5-c]pyridin-2-one]",IC50,HAP1 cells,> 10 µM
same,IC50,human PI3Kα (p110α/p85α),5.46 µM
same,IC50,UT-SCC-54C cells [1],> 10 µM
same,S50,UT-SCC-54C cells [1],0.06 µM
same,IC50,human DNA-PK,4.9 nM
same,IC50,HAP1/PRKDC−/− cells,> 10 µM
"COc1cc(C)c(Nc2cc3c(cn2)n(C)c(=O)n3C2CCOCC2)cn1 [Compound 126, 6-((6-Methoxy-4-methylpyridin-3-yl)amino)-3-methyl-1-(tetrahydro-2H-pyran-4-yl)-1,3-dihydro-2H-imidazo[4,5-c]pyridin-2-one]",IC50,human mTOR,12600 nM
same,effect in unirradiated HAP1 cells,HAP1 cells,little effect
same,radiosensitisation / differential growth inhibition of HAP1 cells,HAP1 cells,concentration-dependent radiosensitisation
same,IC50,HAP1 cells,> 10 µM
same,IC50,human PI3Kα (p110α/p85α),4.23 µM
same,IC50,UT-SCC-54C cells [1],> 10 µM
same,S50,UT-SCC-54C cells [1],0.32 µM
same,IC50,human DNA-PK,9.06 nM
same,radiosensitisation / differential growth inhibition of DNA-PK null HAP1 line,HAP1/PRKDC−/− cells,did not radiosensitise
same,IC50,HAP1/PRKDC−/− cells,> 10 µM
"Cc1nc2cc(C)c(Nc3cc4c(cn3)n(C)c(=O)n4C3CCOCC3)cc2o1 [Compound 132, 6-((2,5-Dimethylbenzo[d]oxazol-6-yl)amino)-3-methyl-1-(tetrahydro-2H-pyran-4-yl)-1,3-dihydro-2H-imidazo[4,5-c]pyridin-2-one]",IC50,human mTOR,60200 nM
same,effect in unirradiated HAP1 cells,HAP1 cells,little effect
same,radiosensitisation / differential growth inhibition of HAP1 cells,HAP1 cells,concentration-dependent radiosensitisation
same,IC50,human PI3Kα (p110α/p85α),5.57 µM
same,IC50,UT-SCC-54C cells [1],> 10 µM
same,S50,UT-SCC-54C cells [1],0.49 µM
same,IC50,human DNA-PK,12.6 nM
same,radiosensitisation / differential growth inhibition of DNA-PK null HAP1 line,HAP1/PRKDC−/− cells,did not radiosensitise
"Cc1cc(O)ccc1Nc1cc2c(cn1)n(C)c(=O)n2C1CCOCC1 [Compound 135, 6-((4-Hydroxy-2-methylphenyl)amino)-3-methyl-1-(tetrahydro-2H-pyran-4-yl)-1,3-dihydro-2H-imidazo[4,5-c]pyridin-2-one]",effect in unirradiated HAP1 cells,HAP1 cells,little effect
same,IC50,HAP1 cells,> 10 µM
same,IC50,human PI3Kα (p110α/p85α),3.22 µM and 5.24 µM
same,IC50,UT-SCC-54C cells [1],> 10 µM
same,S50,UT-SCC-54C cells [1],0.93 µM
same,D1 (radiation dose for 1% surviving fraction),"UT-SCC-54C cells [2]; 0% O2, compound conc 1 μM",11.5 Gy
same,D10 (radiation dose for 10% surviving fraction),"UT-SCC-54C cells [2]; 0% O2, compound conc 1 μM",6.37 Gy
same,SER1 (sensitiser enhancement ratio at 1% surviving fraction),"UT-SCC-54C cells [2]; 0% O2, compound conc 1 μM",2.07
same,SER10 (sensitiser enhancement ratio at 10% surviving fraction),"UT-SCC-54C cells [2]; 0% O2, compound conc 1 μM",2.47
same,Plating efficiency drug/no drug,"UT-SCC-54C cells [2]; 0% O2, compound conc 1 μM",1.12
same,D1 (radiation dose for 1% surviving fraction),"UT-SCC-54C cells [2]; 20% O2, compound conc 0.33 μM",1.37 Gy
same,D10 (radiation dose for 10% surviving fraction),"UT-SCC-54C cells [2]; 20% O2, compound conc 0.33 μM",4.85 Gy
same,SER1 (sensitiser enhancement ratio at 1% surviving fraction),"UT-SCC-54C cells [2]; 20% O2, compound conc 0.33 μM",1.20
same,SER10 (sensitiser enhancement ratio at 10% surviving fraction),"UT-SCC-54C cells [2]; 20% O2, compound conc 0.33 μM",8.09
same,Plating efficiency drug/no drug,"UT-SCC-54C cells [2]; 20% O2, compound conc 0.33 μM",0.77
same,D10 (radiation dose for 10% surviving fraction),"UT-SCC-54C cells [2]; 20% O2, compound conc 1 μM",3.15 Gy and 2.88 Gy
same,SER1 (sensitiser enhancement ratio at 1% surviving fraction),"UT-SCC-54C cells [2]; 20% O2, compound conc 1 μM",1.5 and 1.59
same,Plating efficiency drug/no drug,"UT-SCC-54C cells [2]; 20% O2, compound conc 1 μM",0.59 and 0.89
same,D1 (radiation dose for 1% surviving fraction),"UT-SCC-54C cells [2]; 20% O2, compound conc 3 μM",2.91 Gy
same,D10 (radiation dose for 10% surviving fraction),"UT-SCC-54C cells [2]; 20% O2, compound conc 3 μM",2.28 Gy
same,SER1 (sensitiser enhancement ratio at 1% surviving fraction),"UT-SCC-54C cells [2]; 20% O2, compound conc 3 μM",1.92
same,SER10 (sensitiser enhancement ratio at 10% surviving fraction),"UT-SCC-54C cells [2]; 20% O2, compound conc 3 μM",5.06
same,Plating efficiency drug/no drug,"UT-SCC-54C cells [2]; 20% O2, compound conc 3 μM",0.63
same,"radiosensitisation, clonogenic survival endpoint","UT-SCC-54C cells [2]; UT-SCC-54C, FIG. 8 and Table 18",concentration-dependent increases in radiosensitisation
same,IC50,human DNA-PK,5.7 nM and 17.1 nM
same,radiosensitisation / differential growth inhibition of DNA-PK null HAP1 line,HAP1/PRKDC−/− cells,did not radiosensitise; also recorded: did not demonstrate any differential growth inhibition
same,IC50,HAP1/PRKDC−/− cells,> 10 µM
"COC1CCC(n2c(=O)n(C)c3cnc(Nc4ccc(Cl)cc4C)cc32)CC1 (stereo not drawn) [Compound 173, 6-((4-Chloro-2-methylphenyl)amino)-1-(4-methoxycyclohexyl)-3-methyl-1,3-dihydro-2H-imidazo[4,5-c]pyridin-2-one]",IC50,human mTOR,27500 nM
same,IC50,human PI3Kα (p110α/p85α),2.17 µM
same,IC50,UT-SCC-54C cells [1],> 10 µM
same,S50,UT-SCC-54C cells [1],0.85 µM
same,IC50,human DNA-PK,0.64 nM
"COc1ccc(-n2c(=O)n(C)c3cnc(Nc4ccc(O)cc4C)cc32)cc1 [Compound 200, 6-((4-Hydroxy-2-methylphenyl)amino)-1-(4-methoxyphenyl)-3-methyl-1,3-dihydro-2H-imidazo[4,5-c]pyridin-2-one]",IC50,human mTOR,19500 nM
same,IC50,human PI3Kα (p110α/p85α),0.264 µM
same,IC50,UT-SCC-54C cells [1],> 10 µM
same,S50,UT-SCC-54C cells [1],0.31 µM
same,IC50,human DNA-PK,< 0.05 nM
"COc1cc(C)c(Nc2cc3c(cn2)n(C)c(=O)n3C2CCOCC2)cc1OC [Compound 216, 6-((4,5-Dimethoxy-2-methylphenyl)amino)-3-methyl-1-(tetrahydro-2H-pyran-4-yl)-1,3-dihydro-2H-imidazo[4,5-c]pyridin-2-one]",IC50,human mTOR,42700 nM
same,IC50,human PI3Kα (p110α/p85α),4.62 µM
same,IC50,UT-SCC-54C cells [1],> 10 µM
same,S50,UT-SCC-54C cells [1],7.4 µM
same,IC50,human DNA-PK,390 nM
